Reference: a compilation of properties of binary mixtures (doi:10.1016/j.tca.2013.02.002)

Test: xn = mol fraction of the nth substance listed
Details: 101 kPa

Question: What does the source list for `CS(C)=O` + CC[NH+](CC)CC.O=S(=O)([O-])O?
Answer: speed of sound (298.15 K, x1 = 1): 1496 m/s; viscosity (298.15 K, x1 = 1): 1.99 mPa·s; speed of sound (303.15 K, x1 = 1): 1472 m/s; viscosity (303.15 K, x1 = 1): 1.8 mPa·s; speed of sound (308.15 K, x1 = 1): 1460 m/s; viscosity (308.15 K, x1 = 1): 1.65 mPa·s

Question: With `CC[NH+](CC)CC.O=S(=O)([O-])O` + CS(C)=O as the compound, how does the speed of sound (298.15 K, x2 = 0) read?
Answer: The speed of sound was 1874 m/s.

Question: And the viscosity (298.15 K, x2 = 0)?
Answer: The viscosity was 235 mPa·s.

Question: And the speed of sound (298.15 K, x2 = 0.0557)?
Answer: Its speed of sound is 1861 m/s.

Question: What about the viscosity (298.15 K, x2 = 0.0557) of the same compound?
Answer: Its viscosity is 219 mPa·s.

Question: What about the speed of sound (298.15 K, x2 = 0.108) of the same compound?
Answer: The speed of sound was 1852 m/s.

Question: And the viscosity (298.15 K, x2 = 0.108)?
Answer: Its viscosity is 204 mPa·s.

Question: What about the speed of sound (298.15 K, x2 = 0.1556) of the same compound?
Answer: The speed of sound was 1838 m/s.

Question: And the viscosity (298.15 K, x2 = 0.1556)?
Answer: Its viscosity is 190 mPa·s.

Question: What about the speed of sound (298.15 K, x2 = 0.2473) of the same compound?
Answer: Its speed of sound is 1812 m/s.

Question: And the viscosity (298.15 K, x2 = 0.2473)?
Answer: Its viscosity is 165 mPa·s.

Question: And the speed of sound (298.15 K, x2 = 0.3279)?
Answer: Its speed of sound is 1786 m/s.

Question: And the viscosity (298.15 K, x2 = 0.3279)?
Answer: Its viscosity is 144 mPa·s.

Question: And the speed of sound (298.15 K, x2 = 0.4004)?
Answer: Its speed of sound is 1758 m/s.

Question: And the viscosity (298.15 K, x2 = 0.4004)?
Answer: Its viscosity is 125 mPa·s.

Question: And the speed of sound (298.15 K, x2 = 0.4964)?
Answer: Its speed of sound is 1720 m/s.

Question: And the viscosity (298.15 K, x2 = 0.4964)?
Answer: The viscosity was 101 mPa·s.

Question: And the speed of sound (298.15 K, x2 = 0.5798)?
Answer: Its speed of sound is 1684 m/s.

Question: And the viscosity (298.15 K, x2 = 0.5798)?
Answer: The viscosity was 81.1 mPa·s.

Question: And the speed of sound (298.15 K, x2 = 0.653)?
Answer: The speed of sound was 1652 m/s.

Question: And the viscosity (298.15 K, x2 = 0.653)?
Answer: Its viscosity is 64.6 mPa·s.

Question: What about the speed of sound (298.15 K, x2 = 0.7376) of the same compound?
Answer: Its speed of sound is 1614 m/s.

Question: And the viscosity (298.15 K, x2 = 0.7376)?
Answer: The viscosity was 46.7 mPa·s.

Question: What about the speed of sound (298.15 K, x2 = 0.7812) of the same compound?
Answer: Its speed of sound is 1594 m/s.

Question: What about the viscosity (298.15 K, x2 = 0.7812) of the same compound?
Answer: Its viscosity is 38.2 mPa·s.

Question: What about the speed of sound (298.15 K, x2 = 0.8269) of the same compound?
Answer: Its speed of sound is 1574 m/s.

Question: What about the viscosity (298.15 K, x2 = 0.8269) of the same compound?
Answer: Its viscosity is 29.63 mPa·s.

Question: What about the speed of sound (298.15 K, x2 = 0.8772) of the same compound?
Answer: Its speed of sound is 1550 m/s.

Question: What about the viscosity (298.15 K, x2 = 0.8772) of the same compound?
Answer: Its viscosity is 20.8 mPa·s.

Question: And the speed of sound (298.15 K, x2 = 0.9156)?
Answer: The speed of sound was 1534 m/s.

Question: And the viscosity (298.15 K, x2 = 0.9156)?
Answer: Its viscosity is 14.31 mPa·s.

Question: And the speed of sound (303.15 K, x2 = 0)?
Answer: The speed of sound was 1871 m/s.

Question: What about the viscosity (303.15 K, x2 = 0) of the same compound?
Answer: Its viscosity is 153 mPa·s.

Question: What about the speed of sound (303.15 K, x2 = 0.0244) of the same compound?
Answer: Its speed of sound is 1867 m/s.

Question: And the viscosity (303.15 K, x2 = 0.0244)?
Answer: The viscosity was 148 mPa·s.

Question: And the speed of sound (303.15 K, x2 = 0.0557)?
Answer: The speed of sound was 1859 m/s.

Question: And the viscosity (303.15 K, x2 = 0.0557)?
Answer: Its viscosity is 142 mPa·s.

Question: And the speed of sound (303.15 K, x2 = 0.108)?
Answer: Its speed of sound is 1850 m/s.

Question: What about the viscosity (303.15 K, x2 = 0.108) of the same compound?
Answer: The viscosity was 132 mPa·s.

Question: And the speed of sound (303.15 K, x2 = 0.1556)?
Answer: Its speed of sound is 1836 m/s.

Question: And the viscosity (303.15 K, x2 = 0.1556)?
Answer: The viscosity was 123 mPa·s.

Question: And the speed of sound (303.15 K, x2 = 0.199)?
Answer: The speed of sound was 1820 m/s.

Question: And the viscosity (303.15 K, x2 = 0.199)?
Answer: Its viscosity is 115 mPa·s.

Question: What about the speed of sound (303.15 K, x2 = 0.2473) of the same compound?
Answer: Its speed of sound is 1808 m/s.

Question: And the viscosity (303.15 K, x2 = 0.2473)?
Answer: Its viscosity is 106 mPa·s.

Question: And the speed of sound (303.15 K, x2 = 0.3279)?
Answer: Its speed of sound is 1778 m/s.

Question: What about the viscosity (303.15 K, x2 = 0.3279) of the same compound?
Answer: Its viscosity is 92 mPa·s.

Question: And the speed of sound (303.15 K, x2 = 0.4004)?
Answer: Its speed of sound is 1748 m/s.

Question: And the viscosity (303.15 K, x2 = 0.4004)?
Answer: Its viscosity is 79.3 mPa·s.

Question: And the speed of sound (303.15 K, x2 = 0.4964)?
Answer: Its speed of sound is 1708 m/s.

Question: What about the viscosity (303.15 K, x2 = 0.4964) of the same compound?
Answer: The viscosity was 63.8 mPa·s.

Question: What about the speed of sound (303.15 K, x2 = 0.5798) of the same compound?
Answer: Its speed of sound is 1670 m/s.

Question: What about the viscosity (303.15 K, x2 = 0.5798) of the same compound?
Answer: Its viscosity is 51.1 mPa·s.

Question: And the speed of sound (303.15 K, x2 = 0.7376)?
Answer: The speed of sound was 1596 m/s.

Question: And the viscosity (303.15 K, x2 = 0.7376)?
Answer: The viscosity was 29.42 mPa·s.

Question: What about the speed of sound (303.15 K, x2 = 0.7812) of the same compound?
Answer: The speed of sound was 1576 m/s.

Question: And the viscosity (303.15 K, x2 = 0.7812)?
Answer: Its viscosity is 24.22 mPa·s.

Question: What about the speed of sound (303.15 K, x2 = 0.8269) of the same compound?
Answer: Its speed of sound is 1554 m/s.

Question: What about the viscosity (303.15 K, x2 = 0.8269) of the same compound?
Answer: The viscosity was 19.13 mPa·s.

Question: What about the speed of sound (303.15 K, x2 = 0.8772) of the same compound?
Answer: The speed of sound was 1530 m/s.

Question: And the viscosity (303.15 K, x2 = 0.8772)?
Answer: The viscosity was 13.67 mPa·s.

Question: And the speed of sound (303.15 K, x2 = 0.9156)?
Answer: The speed of sound was 1514 m/s.

Question: And the viscosity (303.15 K, x2 = 0.9156)?
Answer: Its viscosity is 9.78 mPa·s.

Question: And the speed of sound (303.15 K, x2 = 0.9539)?
Answer: The speed of sound was 1495 m/s.

Question: What about the viscosity (303.15 K, x2 = 0.9539) of the same compound?
Answer: The viscosity was 6.27 mPa·s.

Question: And the speed of sound (308.15 K, x1 = 0.011)?
Answer: Its speed of sound is 1468 m/s.

Question: And the viscosity (308.15 K, x1 = 0.011)?
Answer: The viscosity was 2.8 mPa·s.

Question: What about the speed of sound (308.15 K, x2 = 0) of the same compound?
Answer: Its speed of sound is 1866 m/s.

Question: What about the viscosity (308.15 K, x2 = 0) of the same compound?
Answer: Its viscosity is 138 mPa·s.

Question: What about the speed of sound (308.15 K, x2 = 0.0244) of the same compound?
Answer: The speed of sound was 1863 m/s.

Question: What about the viscosity (308.15 K, x2 = 0.0244) of the same compound?
Answer: The viscosity was 134 mPa·s.

Question: What about the speed of sound (308.15 K, x2 = 0.0557) of the same compound?
Answer: The speed of sound was 1857 m/s.

Question: And the viscosity (308.15 K, x2 = 0.0557)?
Answer: Its viscosity is 129 mPa·s.

Question: And the speed of sound (308.15 K, x2 = 0.108)?
Answer: Its speed of sound is 1850 m/s.

Question: What about the viscosity (308.15 K, x2 = 0.108) of the same compound?
Answer: The viscosity was 120 mPa·s.

Question: And the speed of sound (308.15 K, x2 = 0.1556)?
Answer: The speed of sound was 1830 m/s.

Question: And the viscosity (308.15 K, x2 = 0.1556)?
Answer: Its viscosity is 112 mPa·s.

Question: What about the speed of sound (308.15 K, x2 = 0.199) of the same compound?
Answer: Its speed of sound is 1822 m/s.

Question: What about the viscosity (308.15 K, x2 = 0.199) of the same compound?
Answer: Its viscosity is 105 mPa·s.

Question: What about the speed of sound (308.15 K, x2 = 0.3279) of the same compound?
Answer: Its speed of sound is 1778 m/s.

Question: And the viscosity (308.15 K, x2 = 0.3279)?
Answer: The viscosity was 85.4 mPa·s.

Question: And the speed of sound (308.15 K, x2 = 0.4964)?
Answer: Its speed of sound is 1706 m/s.

Question: What about the viscosity (308.15 K, x2 = 0.4964) of the same compound?
Answer: The viscosity was 60.6 mPa·s.

Question: And the speed of sound (308.15 K, x2 = 0.5798)?
Answer: The speed of sound was 1666 m/s.

Question: And the viscosity (308.15 K, x2 = 0.5798)?
Answer: Its viscosity is 49.2 mPa·s.

Question: And the speed of sound (308.15 K, x2 = 0.653)?
Answer: The speed of sound was 1632 m/s.

Question: What about the viscosity (308.15 K, x2 = 0.653) of the same compound?
Answer: Its viscosity is 39.59 mPa·s.

Question: And the speed of sound (308.15 K, x2 = 0.7376)?
Answer: The speed of sound was 1590 m/s.

Question: And the viscosity (308.15 K, x2 = 0.7376)?
Answer: Its viscosity is 29.13 mPa·s.

Question: And the speed of sound (308.15 K, x2 = 0.7812)?
Answer: The speed of sound was 1568 m/s.

Question: What about the viscosity (308.15 K, x2 = 0.7812) of the same compound?
Answer: The viscosity was 23.96 mPa·s.

Question: And the speed of sound (308.15 K, x2 = 0.8269)?
Answer: Its speed of sound is 1546 m/s.

Question: And the viscosity (308.15 K, x2 = 0.8269)?
Answer: The viscosity was 18.72 mPa·s.

Question: And the speed of sound (308.15 K, x2 = 0.8772)?
Answer: The speed of sound was 1520 m/s.

Question: What about the viscosity (308.15 K, x2 = 0.8772) of the same compound?
Answer: The viscosity was 13.35 mPa·s.

Question: And the speed of sound (308.15 K, x2 = 0.9156)?
Answer: Its speed of sound is 1502 m/s.

Question: What about the viscosity (308.15 K, x2 = 0.9156) of the same compound?
Answer: Its viscosity is 9.41 mPa·s.

Question: What about the speed of sound (308.15 K, x2 = 0.9539) of the same compound?
Answer: Its speed of sound is 1484 m/s.

Question: And the viscosity (308.15 K, x2 = 0.9539)?
Answer: The viscosity was 5.84 mPa·s.
